The source of these data is patent US11655252B2, “Aminopyrimidinyl derivatives” (Pfizer Inc., priority 2020, dated 2023).

For orientation: IC50 means the concentration needed to halve the response being measured.

In data set [1] the target is JAK1 (Homo sapiens (Human), UniProt P23458). As to the kind of experiment: JAK Family Caliper Enzyme Assay (JAK1). The format is biochemical. The note with it: recombinant human kinase domain, 1 mM ATP. The protocol:
(§1) JAK Family Caliper Enzyme Assay
(§2) Compounds of the invention were evaluated by in vitro methods to determine their respective ability to inhibit the JAK kinases (TYK2, JAK1, JAK2, JAK3). Inhibitory activity was determined by using a microfluidic assay (LabChip 3000™ mobility shift technology, Caliper Life Science) to monitor phosphorylation of a synthetic peptide by the recombinant human kinase domain of each of the four members of the JAK family, JAK1, JAK2, JAK3 and TYK2. Reaction mixtures contained 1 μM of a fluorescently labeled synthetic peptide, a concentration less than the apparent Km, and 1 mM ATP.
(§3) Compounds in DMSO solution were added to a 384-well plate. Reaction mixtures contained 10 mM HEPES, pH 7.4, 10 mM MgCl2, 0.01% BSA, 0.0005% Tween 20™, 1 mM ATP and 1 μM peptide substrate. The JAK1 and TYK2 assays contained 1 μM of the IRStide peptide (5FAM-KKSRGDYMTMQID) and the JAK2 and JAK3 assays contained 1 μM of the JAKtide peptide (FITC-KGGEEEEYFELVKK). The assays were initiated by the addition of 20 nM JAK1, 1 nM JAK2, 1 nM JAK or 1 nM TYK2 enzyme and were incubated at room temperature for three hours for JAK1, 60 minutes for JAK2, 75 minutes for JAK3 or 135 minutes for TYK2. Enzyme concentrations and incubation times were optimized for each new enzyme preps and were modified slightly over time to ensure 20% to 30% phosphorylation. The assays were stopped with 15 μL of 180 mM HEPES, pH 7.4, 20 mM EDTA, and 0.2% Coating Reagent 3. The assay plates were placed on a Caliper Life Science LC3000 instrument, and each well was sampled using appropriate separation conditions to measure the unphosphorylated and phosphorylated peptide.
(§4) The data was collected using the HTS Well Analyzer software from Caliper Life Sciences. The data output for data analysis is the percent product converted calculated on peak height (Equation 1). % product converted=100*((product)/(product+substrate)) Equation 1: […]
(§5) The percent effect at each compound concentration was calculated based on the positive and negative control well contained within each assay plate (Equation 2). […] The negative control wells contained DMSO alone (at the same concentration as the compound wells) that was used to set the baseline activity in the assay (i.e., uninhibited JAK1, JAK2, JAK3 or TYK2). % effect=100*((sample well−negative control)/(positive control−negative control)) Equation 2: […]
(§6) The percent effect was plotted against the compound concentration compound. An unconstrained sigmoid curve was fitted using a 4 parameter logistic model and the compound concentration required for 50% inhibition (IC50) was determined (Equation 3). y=((max−min)/(1+((x/IC50)^s)))+min Equation 3: […]

Data set [2] addresses JAK2 (Homo sapiens (Human), UniProt O60674). As to the kind of experiment: JAK Family Caliper Enzyme Assay (JAK2). The following applies: recombinant human kinase domain, 1 mM ATP. The format is biochemical. Here is the method: as §1, §2, §3, §4, §5, §6
Data set [3] has as its target TYK2 (Homo sapiens (Human), UniProt P29597). As to the kind of experiment: JAK Family Caliper Enzyme Assay (TYK2). The format is biochemical. The note with it: recombinant human kinase domain, 1 mM ATP. Here is the method: as §1, §2, §3, §4, §5, §6
The subject of data set [4] is CXCL10 biomarker in Th2 stimulated ex vivo human skin. Briefly: Biomarker Modulation in Th2 Stimulated Ex Vivo Human Skin Assay. Type of data set: cell-based. The following applies: 1% w/w formulation applied topically, qPCR. Here is the method: Biomarker Modulation in Th2 Stimulated Ex Vivo Human Skin Assay Compounds of this invention were assessed for their ability to modulate CXCL10 biomarker in Th2 stimulated ex vivo human skin following topical application. […] Freshly excised human skin from surgery specimens was cut with a dermatome to 750 μm thickness and mounted in a 7 mm static Franz cell for tissue culture such that the upper surface of the skin was exposed to air in the Franz cell donor chamber, and the bottom (dermis) was exposed to Cornification medium. A total of two skin donors were used (n=6 per treatment per donor). Incubations were carried out in a standard tissue culture incubator. Compound was dissolved in the indicated formulation at a concentration of 1% w/w and added apically to the skin at 10 μL per sample (approximately 18 μL per cm^2) at 4-6 replicates per donor. After 16 h media was replaced with stimulation cocktail containing anti-CD3 mAb, anti-CD28 mAb, IL-2, IL-4, IL-33 and TSLP. Incubation was continued for additional 24 hr at 37° C. Then skin was harvested, treated with RNALater solution and processed for RNA extraction and qPCR that was run in duplicates. MMP12, CCL26, CXCL10 and Filaggrin may be measured. Results for each sample were normalized to its own GAPDH internal standard which was not appreciably affected by stimulus or compound. Fold change was normalized to untreated sample.
For orientation: Quantitative PCR measures a nucleic acid by following its amplification.

Data set [5] can be described thus: In Vitro Human Hepatocyte Clearance Assay. The note with it: cryopreserved human hepatocytes in suspension, 0.5 million cells/mL, 1 μM test compound, read-out: HHEP CLint, app (μL/min/million cells). The format is in vitro ADME. Here is the method: In Vitro Human Hepatocyte Clearance Assay A high-throughput human hepatocyte substrate-depletion assay was performed in a 384-well formatted as described previously [Di et al., Eur. J. Med. Chem., 2012, 57, 441]. Briefly, the cryopreserved human hepatocytes were thawed and resuspended in Williams' E medium supplemented with HEPES and Na2CO3. The cells were counted using the trypan blue exclusion method. Test compounds were added to suspended human hepatocytes in Williams' E medium buffer and incubated at 37° C. in a humidified CO2 incubator (75% relative humidity, 5% CO2/air) for 4 hours. The final incubation contained 0.5 million cells/mL and 1 μM test compound in 15 μL total volume with 0.1% DMSO. At various time points (0, 3, 10, 30, 60, 120, and 240 minutes), an aliquot of the sample was taken and quenched with cold acetonitrile containing internal standard. The samples were centrifuged at 3000 rpm for 10 minutes at 4° C., and the supernatants were transferred to new plates, which were sealed before performing LC-MS/MS analysis. The apparent metabolic intrinsic clearance (CLint, met, app) was determined based on the substrate-depletion half-life estimated from the ratio of the peak area response of each compound to that of the internal standard, as described earlier [Di et al., Eur. J. Med. Chem., 2012, 57, 441].

The target in data set [6] is JAK3 (Homo sapiens (Human), UniProt P52333). As to the kind of experiment: JAK Family Caliper Enzyme Assay (JAK3). Type of data set: biochemical. The note with it: recombinant human kinase domain, 1 mM ATP. The protocol:
as §1, §2, §3, §4
The percent effect at each compound concentration was calculated based on the positive and negative control well contained within each assay plate (Equation 2). […]

Data set [7] deals with interferon alpha signalling (TYK2 and JAK1), pSTAT3 in human whole blood lymphocytes. Briefly: HWB INF Alpha Induced STAT3 Phosphorylation Assay. The following applies: Lymphocyte, IFN alpha 5000 U/ml, flow cytometry. Type of data set: cell-based. The protocol:
HWB INF Alpha Induced STAT3 Phosphorylation Assay
Compounds of this invention were assessed for their ability to inhibit interferon alpha signalling in a human whole blood flow cytometry assay. Interferon alpha signals through TYK2 and JAK1. Test articles were prepared as 30 mM stocks in 100% DMSO, and then diluted to 10 mM. An 11-point 3 dilution series was created in DMSO with a top concentration of […]. Further dilution was done by adding 4 μL of the above test article solutions into 96 μL of PBS with a top concentration of 400 μM. Human whole blood (HWB) was collected from healthy donors via vein puncture into Vacutainer™ collection tubes containing sodium heparin (Catalog No. 366480, Becton Dickinson, Franklin Lakes, N.J.). Blood was warmed to 37° C. prior to use. […]
Samples were transferred to 96-well U bottom plates (Falcon #353077) and flow cytometric analysis was performed on an LSRFortessa equipped with a HTS plate loader (BD Biosciences). […] Background fluorescence was defined using unstimulated cells and a gate was placed at the foot of the peak to include ˜0.5% gated population. […] Relative fluorescence unit (RFU), which measures the level of phospho STAT, was calculated by multiplying the percent positive population and its mean fluorescence. […] Inhibition curves and IC50 values were determined using the Prism version 7 software (GraphPad, La Jolla, Calif.).

JAK1, sequence (P23458 875-1153): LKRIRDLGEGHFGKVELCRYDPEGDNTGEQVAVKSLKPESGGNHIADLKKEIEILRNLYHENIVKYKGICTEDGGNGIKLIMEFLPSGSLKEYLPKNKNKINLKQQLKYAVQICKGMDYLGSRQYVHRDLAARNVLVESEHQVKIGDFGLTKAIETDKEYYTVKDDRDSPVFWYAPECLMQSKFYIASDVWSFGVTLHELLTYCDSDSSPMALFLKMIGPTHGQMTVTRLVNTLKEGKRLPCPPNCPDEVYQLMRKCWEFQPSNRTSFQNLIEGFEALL
TYK2, sequence (P29597 897-1176): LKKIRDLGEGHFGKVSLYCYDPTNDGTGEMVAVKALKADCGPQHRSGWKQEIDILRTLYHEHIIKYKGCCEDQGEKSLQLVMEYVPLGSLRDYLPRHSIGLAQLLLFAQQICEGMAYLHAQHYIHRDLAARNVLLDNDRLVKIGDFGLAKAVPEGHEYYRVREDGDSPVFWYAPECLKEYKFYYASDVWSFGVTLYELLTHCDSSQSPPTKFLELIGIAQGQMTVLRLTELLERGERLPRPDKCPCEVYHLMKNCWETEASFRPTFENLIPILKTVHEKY
JAK3, sequence (P52333 822-1111): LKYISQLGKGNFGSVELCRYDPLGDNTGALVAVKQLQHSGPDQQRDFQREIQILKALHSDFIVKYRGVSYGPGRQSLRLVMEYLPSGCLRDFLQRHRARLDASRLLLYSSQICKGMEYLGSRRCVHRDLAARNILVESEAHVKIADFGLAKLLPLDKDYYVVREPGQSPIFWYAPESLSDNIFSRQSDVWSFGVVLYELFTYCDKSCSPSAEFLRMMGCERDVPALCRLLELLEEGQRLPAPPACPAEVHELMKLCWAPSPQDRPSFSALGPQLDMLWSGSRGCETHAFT
JAK2, sequence (O60674 849-1124): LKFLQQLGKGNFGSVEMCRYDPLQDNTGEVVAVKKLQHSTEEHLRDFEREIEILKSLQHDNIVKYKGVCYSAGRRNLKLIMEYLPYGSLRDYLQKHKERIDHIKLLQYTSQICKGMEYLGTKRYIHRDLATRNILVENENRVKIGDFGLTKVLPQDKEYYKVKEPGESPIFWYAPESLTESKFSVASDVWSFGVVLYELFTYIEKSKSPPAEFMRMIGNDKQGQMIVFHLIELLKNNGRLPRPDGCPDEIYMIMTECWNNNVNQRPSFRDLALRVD

Regarding `C[C@H](O)Cn1cc(Nc2nccc(N3C[C@H]4CC[C@@H](C3)N4C(=O)[C@@H]3CC3(F)F)n2)cn1` [IC, ((S)-2,2-Difluorocyclopropyl)((1R,5S)-3-(2-((1-((S)-2-hydroxypropyl)-1H-pyrazol-4-yl)amino)pyrimidin-4-yl)-3,8-diazabicyclo[3.2.1]octan-8-yl)methanone], the IC50 came to 44 nM in data set [1], 139 nM in data set [2] and 65 nM in data set [3].

For the molecule `Cn1cc(Nc2nccc(N3C[C@H]4CC[C@@H](C3)N4C(=O)[C@@H]3CC3(F)F)n2)cn1` [II, ((S)-2,2-difluorocyclopropyl)-((1R,5S)-3-(2-((1-methyl-1H-pyrazol-4-yl)amino)pyrimidin-4-yl)-3,8-diazabicyclo[3.2.1]octan-8-yl)methanone, reference compound], in data set [4], the “% inhibition CXCL10” value came to 72.4%. Moreover, in data set [5], the hepatocyte CLint at 1 μM is less than 0.6 µL/min/1e6 cells.

Regarding `O=C([C@@H]1CC1(F)F)N1[C@@H]2CC[C@H]1CN(c1ccnc(Nc3cnn(CCCO)c3)n1)C2` [ID], the IC50 was 47 nM in data set [1], 81 nM in data set [2], more than 9280 nM in data set [6] and 30 nM in data set [3].

Take `CCCn1cc(Nc2nccc(N3C[C@H]4CC[C@@H](C3)N4C(=O)[C@@H]3CC3(F)F)n2)cn1` [IA, ((S)-2,2-Difluorocyclopropyl)((1R,5S)-3-(2-((1-propyl-1H-pyrazol-4-yl)amino)pyrimidin-4-yl)-3,8-diazabicyclo[3.2.1]octan-8-yl)methanone]: the IC50 in data set [1] is 33 nM; in data set [2] it was 80 nM; in data set [6], more than 9580 nM; in data set [3], 37 nM; in data set [7], 66 nM. Moreover, in data set [4], the “% inhibition CXCL10” value is given as 94.2%. Also, the hepatocyte CLint at 1 μM in data set [5] is 8.6 µL/min/1e6 cells.

Turning to `C[C@@H](O)Cn1cc(Nc2nccc(N3C[C@H]4CC[C@@H](C3)N4C(=O)[C@@H]3CC3(F)F)n2)cn1` [IB, ((S)-2,2-Difluorocyclopropyl)((1R,5S)-3-(2-((1-((R)-2-hydroxypropyl)-1H-pyrazol-4-yl)amino)pyrimidin-4-yl)-3,8-diazabicyclo[3.2.1]octan-8-yl)methanone], the IC50 in data set [1] is 59 nM; in data set [2] it was 223 nM; in data set [6] it was more than 10000 nM; in data set [3] it was 82 nM.
